Data reported in patent US10551389B2, “Target binding molecules identified by kinetic target-guided synthesis” (UNIVERSITY OF SOUTH FLORIDA, priority 2013, dated 2020).

Columns and labels:
Mcl-1 = Mcl-1 (Homo sapiens, UniProt Q07820); assay: Inhibition of Mcl-1 (disruption of Mcl-1/Bim interaction); assay type: binding; conditions: for % Inhibition (25 μM) Mcl-1 / inhibition at 25 µM: compound at 25 μM; for % Inhibition (50 μM) Mcl-1 / inhibition at 50 µM: compound at 50 μM
Procedure: (§1) In a subsequent study, a structurally diverse library of forty five thio acids and thirty eight sulfonyl azides (identified above) was screened in parallel against Mcl-1 and Bcl-XL using the above mentioned approach. Several potential hit combinations were identified (Table 3). All of these kinetic TGS hit compounds were synthesized (identified above and in Table 3). All the reactions were performed at 20-30 mg scale. The 9-fluorenylmethyl thioester was placed in a 2.0 mL vial and 3.5% DBU/dry DMF solution was added (per 1 μmol of thioester, 4.7 μL, of 3.5% DBU/dry DMF solution was added) and the reaction was stirred for one minute. Then the sulfonylazide (1 eq to thioester) was added to the reaction mixture and immediately bubbling was observed. After the reaction was completed (approximately one minute, monitored by LC-MS) water (200 μL) was added and the pH was adjusted to 7.0 using 1M HCl solution. The reaction mixture was extracted with DCM until there is no product in the aqueous layer (checked by TLC or LC-MS). The product was purified by flash chromatography. Testing of these acylsulfonamides has shown that the hit compounds disrupt the Bcl-XL/Bim or Mcl-1/Bim interaction (Table 3).

Bcl-XL = Bcl-XL (Homo sapiens, UniProt Q07817); assay: Inhibition of Bcl-XL (disruption of Bcl-XL/Bim interaction); assay type: binding; conditions: for % Inhibition (25 μM) Bcl-XL / inhibition at 25 µM: compound at 25 μM; for % Inhibition (50 μM) Bcl-XL / inhibition at 50 µM: compound at 50 μM
Procedure: as §1

Sequence of Mcl-1 (Q07820 whole entry, species assumed): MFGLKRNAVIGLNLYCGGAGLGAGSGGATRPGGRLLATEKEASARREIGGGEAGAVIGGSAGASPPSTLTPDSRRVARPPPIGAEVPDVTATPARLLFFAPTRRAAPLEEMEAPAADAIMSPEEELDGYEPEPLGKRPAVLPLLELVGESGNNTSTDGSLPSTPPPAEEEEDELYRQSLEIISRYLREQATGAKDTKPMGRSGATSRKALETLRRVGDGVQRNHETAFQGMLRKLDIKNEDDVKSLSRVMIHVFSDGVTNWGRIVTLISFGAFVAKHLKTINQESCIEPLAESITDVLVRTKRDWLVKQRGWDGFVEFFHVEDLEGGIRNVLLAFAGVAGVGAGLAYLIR
Sequence of Bcl-XL (Q07817 whole entry, species assumed): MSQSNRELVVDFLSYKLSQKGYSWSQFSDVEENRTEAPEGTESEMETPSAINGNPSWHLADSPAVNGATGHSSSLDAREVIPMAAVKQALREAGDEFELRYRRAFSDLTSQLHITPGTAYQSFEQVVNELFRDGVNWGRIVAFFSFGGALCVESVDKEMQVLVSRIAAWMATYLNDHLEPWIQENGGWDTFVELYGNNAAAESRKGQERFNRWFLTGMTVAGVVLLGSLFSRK

SMILES	IC50 (Mcl-1)	% Inhibition (25 μM) Mcl-1 (Mcl-1)	% Inhibition (50 μM) Mcl-1 (Mcl-1)	IC50 (Bcl-XL)	% Inhibition (25 μM) Bcl-XL (Bcl-XL)	% Inhibition (50 μM) Bcl-XL (Bcl-XL)	inhibition at 50 µM (Bcl-XL)	inhibition at 25 µM (Mcl-1)	inhibition at 25 µM (Bcl-XL)	inhibition at 50 µM (Mcl-1)
O=C(NS(=O)(=O)c1ccc(CN(CCSc2ccccc2)Cc2c(F)cccc2Cl)cc1)c1ccc(OC(F)(F)F)cc1 [SZ15TA8]	7.6 µM	<2.0%	96.5%	47 µM	3.4%	12.4%	–	–	–	–
Cc1nc(-c2ccccc2)sc1C(=O)NS(=O)(=O)c1ccc(CN(CCSc2ccccc2)Cc2c(F)cccc2Cl)cc1 [SZ15TA3]	5.8 µM	–	–	–	–	–	43%	–	–	–
Cc1noc(C)c1-c1ccc(S(=O)(=O)NC(=O)c2ccc(CN3C(=O)C(c4ccc(F)cc4F)=C(c4ccc(F)cc4F)C3=O)cc2)cc1 [SZ32TA42]	19.1 µM	–	–	–	–	–	59.4%	72.2%	26%	–
CN(CCc1ccccc1)Cc1ccc(S(=O)(=O)NC(=O)c2ccc(C(c3c[nH]c4ccccc34)c3c[nH]c4ccccc34)cc2)cc1 [SZ2TA31]	–	14.2%	16.2%	–	14.9%	9.4%	–	–	–	–
COc1cccc(CN(CCSc2ccccc2)Cc2ccc(S(=O)(=O)NC(=O)c3ccc4c(c3)c(C(=O)C3CCCCC3)cn4C)cc2)c1 [SZ17TA40]	–	25.8%	58.5%	–	7.5%	<2.0%	–	–	–	–
NS(=O)(=O)c1ccc(CN(CCSc2ccccc2)Cc2ccc(S(=O)(=O)NC(=O)Cn3c4ccccc4c4ccccc43)cc2)cc1 [SZ10TA15]	–	35.2%	37.4%	–	9.4%	<2.0%	–	–	–	–
O=C(NS(=O)(=O)c1ccc(CN(CCSc2ccccc2)Cc2ccc3c(c2)OCO3)cc1)c1ccc(C(c2c[nH]c3ccccc23)c2c[nH]c3ccccc23)cc1 [SZ31TA31]	–	<2.0%	<2.0%	–	<2.0%	<2.0%	–	–	–	–
Cn1cc(C(=O)C2CCCCC2)c2cc(C(=O)NS(=O)(=O)c3ccc(CN(CCSc4ccccc4)Cc4ccc(S(N)(=O)=O)cc4)cc3)ccc21 [SZ10TA40]	–	37.2%	35.2%	–	<2.0%	<2.0%	–	–	–	–
COc1cc2c(cc1OC)C(c1ccccc1)N(Cc1ccc(S(=O)(=O)NC(=O)c3ccc(C(c4c[nH]c5ccccc45)c4c[nH]c5ccccc45)cc3)cc1)CC2 (centres unmarked) [SZ8TA31]	–	<2.0%	<2.0%	–	<2.0%	<2.0%	–	–	–	–
COc1cccc(CN(CCSc2ccccc2)Cc2ccc(S(=O)(=O)NC(=O)Cn3c4ccccc4c4ccccc43)cc2)c1 [SZ17TA15]	–	–	–	–	–	–	12%	53.3%	3%	–
Cc1nc(-c2ccccc2)sc1C(=O)NS(=O)(=O)c1ccc(CN(CCSc2ccccc2)Cc2ccc(S(=O)(=O)N=[N+]=[N-])cc2)cc1 [SZ9TA3]	22.7 µM	–	–	–	–	–	21.6%	–	–	83.1%
[N-]=[N+]=NS(=O)(=O)c1ccc(CN(CCSc2ccccc2)Cc2ccc(S(=O)(=O)NC(=O)c3cccc4ccccc34)cc2)cc1 [SZ9TA7]	8.2 µM	–	–	–	–	–	44.5%	–	–	–
COc1cccc(CN(CCSc2ccccc2)Cc2ccc(S(=O)(=O)NC(=O)c3ccc(CCc4ccccn4)cc3)cc2)c1 [SZ17TA17]	–	73.9%	89.0%	–	68.1%	58.4%	–	–	–	–
COc1cccc(CN(CCSc2ccccc2)Cc2ccc(S(=O)(=O)NC(=O)c3sc(-c4ccccc4)nc3C)cc2)c1 [SZ17TA3]	8.6 µM	–	–	–	–	–	39.6%	–	–	100%
CC1(C)CCN(c2ccc(C(=O)NS(=O)(=O)c3ccc(CN(CCSc4ccccc4)Cc4ccc(S(N)(=O)=O)cc4)cc3)cc2)CC1 [SZ10TA2]	15.8 µM	–	–	44 µM	–	–	52.1%	41.7%	–	94.7%
COc1cc2c(cc1OC)C(c1ccccc1)N(CCS(=O)(=O)NC(=O)c1ccc(CN3C(=O)C(c4ccc(F)cc4F)=C(c4ccc(F)cc4F)C3=O)cc1)CC2 (centres unmarked) [SZ27TA42]	–	18.3%	52.3%	–	14.1%	5.2%	–	–	–	–
COc1cccc(CN(CCSc2ccccc2)Cc2ccc(S(=O)(=O)NC(=O)c3ccc(OC(F)(F)F)cc3)cc2)c1 [SZ17TA8]	8.4 µM	–	–	–	–	–	< 2%	60.5%	4.1%	100%
COc1cccc(CN(CCSc2ccccc2)Cc2ccc(S(=O)(=O)NC(=O)c3ccc(-c4ccc(F)cc4)cc3)cc2)c1 [SZ17TA14]	–	73.9%	46.7%	–	16.6%	2.8%	–	–	–	–
O=C(NS(=O)(=O)CCN(CCSc1ccccc1)Cc1ccc2c(c1)OCO2)c1ccc(C(c2c[nH]c3ccccc23)c2c[nH]c3ccccc23)cc1 [SZ28TA31]	–	22.6%	25.8%	–	8.1%	<2.0%	–	–	–	–
COc1cccc(CN(CCSc2ccccc2)Cc2ccc(S(=O)(=O)NC(=O)c3cccc4ccccc34)cc2)c1 [SZ17TA7]	20.1 µM	–	–	–	–	–	66.5%	–	–	–
COc1cc2c(cc1OC)C(c1ccccc1)N(Cc1ccc(S(=O)(=O)NC(=O)CCCN3C(=O)C(c4ccc(F)cc4F)=C(c4ccc(F)cc4F)C3=O)cc1)CC2 (centres unmarked) [SZ8TA20]	–	–	–	–	–	–	< 2%	23.5%	9.1%	–
O=C(NS(=O)(=O)c1ccc(-c2ccc(C(F)(F)F)cc2)cc1)c1cccc(NCCc2ccccc2)c1 [SZ16TA44]	31.5 µM	–	–	–	–	–	55.5%	49.9%	26.8%	–
[N-]=[N+]=NS(=O)(=O)c1ccc(CN(CCSc2ccccc2)Cc2ccc(S(=O)(=O)NC(=O)c3ccc(-c4ccccn4)cc3)cc2)cc1 [SZ9TA25]	–	–	–	–	–	–	< 2%	43.1%	18.6%	–
CC(C)(C)c1ccc(-c2ccc(S(=O)(=O)NC(=O)c3ccc4c(ccn4Cc4ccc(C(F)(F)F)cc4C(F)(F)F)c3)cc2)cc1 [SZ11TA30]	–	53.1%	63.6%	–	8.5%	<2.0%	–	–	–	–
Cn1cc(C(=O)C2CCCCC2)c2cc(C(=O)NS(=O)(=O)c3ccc(CN(CCSc4ccccc4)Cc4ccc5c(c4)OCO5)cc3)ccc21 [SZ31TA40]	–	<2.0%	<2.0%	–	<2.0%	<2.0%	–	–	–	–
O=C(NS(=O)(=O)c1ccc(-c2cc3ccccc3s2)cc1)c1ccc(CN2C(=O)C(c3ccc(F)cc3F)=C(c3ccc(F)cc3F)C2=O)cc1 [SZ37TA42]	–	<2.0%	22.7%	–	21.8%	<2.0%	–	–	–	–
COc1cc2c(cc1OC)C(c1ccccc1)N(Cc1ccc(S(=O)(=O)NC(=O)c3ccc(-c4ccc(F)cc4)cc3)cc1)CC2 (centres unmarked) [SZ8TA14]	–	–	–	–	–	–	13.9%	35.2%	14.4%	58.3%
O=C(NS(=O)(=O)c1ccc(NCCSc2ccccc2)c([N+](=O)[O-])c1)c1ccc2c(ccn2Cc2ccc(C(F)(F)F)cc2C(F)(F)F)c1 [SZ4TA30]	26.1 µM	–	–	> 50 µM	–	–	42.6%	68.7%	41.2%	–
O=C(CC1Sc2ccccc2NC1=O)NS(=O)(=O)c1ccc(CN(CCSc2ccccc2)Cc2c(F)cccc2Cl)cc1 (centres unmarked) [SZ15TA34]	–	47.4%	82.8%	–	19.6%	28.6%	–	–	–	–
